Laboratory results: US20220322656A1, “PRESERVATION OF ORGANS FOR TRANSPLANT AND NON-TRANSPLANT SURGERIES” (The Regents of the University of Michigan, priority 2019, published 2022)
Entries after “also recorded” stand apart in the source; their conditions may differ.

How the values were obtained:
murine donor hearts [1] = test: Hemodynamics (max dp/dt, min dp/dt) of murine donor hearts after cold storage and ex-vivo reperfusion
human donor hearts = test: RNA-Seq gene set enrichment analysis of human donor hearts during cold (4° C.) storage
Procedure: For treatment of human donor hearts, 6 grams of VPA was dissolved in 2 liters of HTK preservation solution and also used 2 liters of HTK solution as control. The solutions were then infused this through the aortic root of human donor hearts (n=3). RNA-Seq was performed to study the transcriptomic effect of VPA on the human heart during cold (4° C.) storage. Total RNA was isolated from the heart tissue stored at 0 h, 4 h and 8 h time points. Gene set enrichment analysis was then performed at different time points with or without VPA treatment.

Myd88 = Myd88 protein level in donor heart after cold storage (western blot); design: species or system murine
Procedure: (§1) Experiments were conducted during development of embodiments herein to examine the effect of VPA on donor heart function with prolonged cold storage of donor heart. To address this, murine donor hearts were perfused with 7-8 mL HTK solution alone or HTK with 20 mM VPA and then stored the heart for 0, 4, and 8 hours.
(§2) Experiments were conducted during development of embodiments herein to determine whether pharmacological inhibition of MR signaling improves the heart function after prolonged cold storage period. To address this, murine donor hearts were perfused with 7-8 mL HTK solution alone or HTK with 25 μM spironolactone and then stored the heart for 0, 8 and 12 hours.

pig hearts = test: Ex-vivo isolated pig heart perfusion after 6 hours of ice storage in HTK with or without VPA; conditions: 6 grams VPA in 2 liters HTK, 6 hours on ice
Procedure: FIG. 1. Coronary vascular resistance after two hours of ex-vivo pig heart perfusion. […] 6 grams of VPA was dissolved in 2 liters of heart preservation solution (histidine-tryptophan-ketoglutarate solution, HTK) and then infused this through the aortic root of freshly sacrificed pig hearts (n=3). For the control group (n=3) only HTK solution was infused. HTK solution is one of the standard donor heart preservation solutions used clinically for heart transplantation. The pig heart was then stored in ice after mechanical arrest with HTK solution as per standard transplant protocol for a total of 6 hours. After 6 hours, the hearts were retrieved and perfused with pig blood in an ex-vivo isolated heart perfusion model. The hearts were then examined for cardiac performance.

[2] = tested on: donor hearts from C57BL/6J mice; test: Reanimation of murine donor hearts on ex-vivo Langendorff apparatus after cold storage; conditions: up to 5 hours of cold storage, vs HTK solution
Procedure: From murine heart experiments, donor hearts from C57BL/6J mice were preserved with either HTK solution or VPA+HTK solution and then stored in ice as per clinical protocols. The cold storage time was varied from 0 hour to 9 hours before reperfusing on an ex-vivo Langendorff apparatus.

Il1 = Il1 protein level in donor heart after cold storage (western blot); design: species or system murine
Procedure: as §1, §2

murine donor hearts [3] = test: Hemodynamics (max dp/dt, min dp/dt) of murine donor hearts after cold storage and ex-vivo reperfusion; remark: listed apart in the source
Procedure: FIG. 5A-C. […] The max dp/dt (A) and min dp/dt (B) were calculated by averaging the max/min dp/dt in 20 minutes stable period after different cold storage periods followed by perfusion. The max dp/dt or −min dp/dt of hearts were normalized to percentage of time 0. **p<0.01. (C) VPA suppress the Ill and Myd88 protein level induced by cold storage.
FIG. 9A-C. […] Following spironolactone treatment, much improved (A) max dp/dt and (B) min dp/dt after prolonged storage after 8 hours and 12 hours was observed compared to HTK alone. N=4. **p<0.01, ***p<0.001 (C) Spironolactone suppress the Il1 and Myd88 protein level induced by cold storage.
as §1
Murine donor hearts were isolated and preserved in HTK solution for 0 h, 4 h and 8 h. The cardiac hemodynamics were then examined in an ex-vivo perfusion system. […] This was accompanied by increasing apoptotic cell death by TUNEL staining (FIG. 6C). Occurrence of cell death processes such as apoptosis with increasing storage duration is corroborated by Increased expression of cleaved poly (ADP-ribose) polymerase (PARP), a marker of cell death (FIG. 6D).
as §2

[4] = canrenone vs HTK alone, after 8 hours of preservation
[5] = canrenone vs HTK alone, prolonged storage after 4 hours and 8 hours
[6] = Alda-1 vs HTK alone, after 8 h of cold storage
[7] = HTK with 20 mM VPA vs HTK alone, after 4 h and 8 h of cold storage
[8] = spironolactone, western blot, listed as spironolactone
[9] = HTK with 25 μM spironolactone vs HTK alone, after 8 h and 12 h of cold storage
[10] = HTK with 25 μM spironolactone vs HTK alone, after 8 h and 12 h of cold storage, listed as spironolactone

## C[C@]12CCC(=O)C=C1C=C[C@@H]1[C@@H]2CC[C@@]2(C)[C@H]1CC[C@@]21CCC(=O)O1 [Canrenone, canrenone]
Murine donor hearts [1]; [4]
  max dp/dt (donor heart contraction): significantly improves
  min dp/dt (donor heart relaxation): significantly improves
Murine donor hearts [1]; [5]
  max dp/dt: much improved
  min dp/dt: much improved

## O=C(NCc1ccc2c(c1)OCO2)c1c(Cl)cccc1Cl [Alda-1, N-(1,3-benzodioxo1-5-ylmethyl)-2,6-dichlorobenzamide]
Murine donor hearts [1]; [6]
  max dp/dt (donor heart contractility): dramatically improves; also recorded: improved
  min dp/dt (donor heart relaxation): dramatically improves; also recorded: improved

## CCCC(CCC)C(=O)O [VPA, Valproic acid]
Human donor hearts; LV, VPA vs HTK Only
  NES, Inflammatory response: −1.47
  NES, Interferon gamma response: −1.65
  NES, TNFa signaling via NFkB: −1.68
Human donor hearts; LV, during cold storage
  accumulation of genes related to inflammatory response: significantly reduced
Human donor hearts; RV, VPA vs HTK Only
  NES, Inflammatory response: −1.32
  NES, P53 pathway: −1.25
  NES, TNFa signaling via NFkB: −1.96
Human donor hearts; RV, during cold storage
  activation of p53 proapoptotic pathway: reduced the activation
  expression of inflammatory response genes: reduced expression
Myd88; HTK with 20 mM VPA
  Myd88 protein level: suppress; also recorded: reduced protein level
Pig hearts; pig hearts (n=3), control 2 out of 3
  fibrillatory arrest during ex-vivo perfusion: None
Pig hearts; pig hearts, after two hours of ex-vivo perfusion, vs HTK control
  Coronary vascular resistance / coronary vascular tone: improved; also recorded: trend toward better maintenance
[2]
  cardiac reanimation: successful and comparable for both groups
Il1; HTK with 20 mM VPA
  Il1 protein level: suppress; also recorded: reduced protein level
Murine donor hearts [3]; [7]
  max dp/dt (donor heart contractility): improves donor heart function; also recorded: dramatically improved
  min dp/dt (donor heart relaxation): improves donor heart function; also recorded: dramatically improved

## CC(=O)S[C@@H]1CC2=CC(=O)CC[C@]2(C)[C@H]2CC[C@@]3(C)[C@@H](CC[C@@]34CCC(=O)O4)[C@H]12 [Spironolactone, spironolactone]
Myd88; spironolactone, western blot
  Myd88 protein level: suppress
Myd88; [8]
  Myd88 protein level: significantly reduced
Il1; spironolactone, western blot
  Il1 protein level: suppress
Il1; [8]
  Il1 protein level: significantly reduced
Murine donor hearts [3]; [9]
  max dp/dt (donor heart contractility): much improved
  min dp/dt (donor heart relaxation): much improved
Murine donor hearts [3]; [10]
  max dp/dt (donor heart contractility): dramatically improved
  min dp/dt (donor heart relaxation): dramatically improved
